The text below walks through data of patent publication US12209079B2 (GENERAL INCORPORATED ASSOCIATION PHARMA VALLEY PROJECT …, priority 2017, dated 2025).

Where a name gives a salt, the structure may show the parent alone.

Experiment [1] concerns the target rhIDO (recombinant human IDO) (Homo sapiens, UniProt P14902). Briefly: Enzyme assay using rhIDO (rate of kynurenine production). Format: biochemical. The conditions noted are these: 2 h; final concentration of the compound 10 μM; rate relative to reaction without compound; read-out: rhIDO-mediated kynurenine production. On the procedure:
Enzyme Assay Protocol Using rhIDO (Recombinant Human IDO)
4 μL of a compound solution was added to 176 μL of a rhIDO reaction solution (0.5 M potassium phosphate buffer (20 μL), 0.2 M ascorbic acid (20 μL), 0.5 mM methylene blue (4 μL), 10 mg/mL catalase (2 μL), H2O (128 μL), and rhIDO (2 μL)). The mixture was pipetted and preincubated at 37° C. for 10 minutes. Then, the whole amount was brought to 200 μL by the addition of 20 μL of a 2 mM aqueous tryptophan solution, and the mixture was pipetted again and reacted at 37° C. for 120 minutes. After the reaction, the enzymatic reaction was terminated by the addition of 40 μL of a 30% [v/v] aqueous trichloroacetic acid solution to the reaction solution. The mixture was well stirred by pipetting and heated at 50° C. for 15 minutes so that N-formylkynurenine was converted to kynurenine. The reaction solution thus heated was centrifuged (15,000 rpm, 5 min, 24° C.), and 150 μL of the supernatant was transferred to a transparent 96-well flat-bottomed plate, followed by the measurement of absorbance at 490 nm using SpectraMax MSSK (background measurement). After the measurement, a solution of 2% [w/v] p-dimethylbenzaldehyde in acetic acid was added at 150 μL/well and reacted for 5 minutes, followed by the measurement of absorbance at 490 nm again. The rate of kynurenine production was calculated according to the following expression. Rate of kynurenine production (%) for each compound in the case of using rhIDO={(Absorbance at 490 nm in the tryptophan-containing aqueous solution comprising rhIDO and the compound of the present invention−Absorbance of the background)/(Absorbance at 490 nm in the tryptophan-containing aqueous solution without the addition of the compound solution−Absorbance of the background)}×100 Enzyme Assay Protocol Using rhTDO (Recombinant Human TDO)

Experiment [2] concerns the target rhTDO (recombinant human TDO) (Homo sapiens, UniProt P48775). Nature of the experiment: Enzyme assay using rhTDO (rate of kynurenine production). Format: biochemical. Conditions: 2 h; final concentration of the compound 10 μM; rate relative to reaction without compound; read-out: rhTDO-mediated kynurenine production. On the procedure:
4 μL of a compound solution was added to 176 μL of a rhTDO reaction solution (0.5 M potassium phosphate buffer (20 μL), 0.2 M ascorbic acid (20 μL), 0.5 mM methylene blue (4 μL), 10 mg/mL catalase (2 μL), H2O (128 μL), and rhTDO (2 μL)). The mixture was pipetted and preincubated at 37° C. for 10 minutes. Then, the whole amount was brought to 200 μL by the addition of 20 μL of a 20 mM aqueous tryptophan solution, and the mixture was pipetted again and reacted at 37° C. for 120 minutes. After the reaction, the enzymatic reaction was terminated by the addition of 40 μL of a 30% [v/v] aqueous trichloroacetic acid solution to the reaction solution. The mixture was well stirred by pipetting and heated at 50° C. for 15 minutes so that N-formylkynurenine was converted to kynurenine. The reaction solution thus heated was centrifuged (15,000 rpm, 5 min, 24° C.), and 150 μL of the supernatant was transferred to a transparent 96-well flat-bottomed plate, followed by the measurement of absorbance at 490 nm using SpectraMax M5 SK (background measurement). After the measurement, a solution of 2% [w/v] p-dimethylbenzaldehyde in acetic acid was added at 150 μL/well and reacted for 5 minutes, followed by the measurement of absorbance at 490 nm again. The rate of kynurenine production was calculated according to the following expression. Rate of kynurenine production (%) for each compound in the case of using rhTDO={(Absorbance at 490 nm in the tryptophan-containing aqueous solution comprising rhTDO and the compound of the present invention−Absorbance of the background)/(Absorbance at 490 nm in the tryptophan-containing aqueous solution without the addition of the compound solution−Absorbance of the background)}×100 IDO Cell-Based Assay Protocol

The next experiment addresses T1, IDO in A431 cells (Homo sapiens, UniProt P14902).
T1 construct: endogenous in cells; host or cells: A431 cells, IFN-γ stimulated
Briefly: IDO cell-based assay, kynurenine production in IFN-γ stimulated A431 cells. The conditions noted are these: A-431, 24 h; final concentration of the compound 10 μM; rate relative to culture without compound. On the procedure: A431 cells (3.0×10^5 cells/mL) suspended in a culture medium for assay (D-MEM; Wako 040-30095, 5% FBS, 50 units/mL penicillin, 50 μg/mL streptomycin, and 2 mM L-glutamine) were inoculated at 100 μL/well to a transparent 96-well flat-bottomed plate and cultured at 37° C. for 24 hours in 5% CO2. The culture medium was removed from the cells thus cultured. A tryptophan-containing culture medium (culture medium for assay supplemented with 178 μM L-tryptophan) was added at 80 μL/well, and further, a compound solution was added at 10 μL/well. The cells were preincubated for 1 hour. Then, the whole amount was brought to 100 μL/well by the addition of 10 μL/well of IFN-γ diluted into 100 ng/mL with a tryptophan-containing culture medium, and the cells were cultured for 24 hours. After the culture, absorbance was measured at 460 nm using SpectraMax MSSK (Molecular Devices, LLC) (background measurement). After the measurement, a kynurenine quantification reagent (prepared with 7% [v/v] aqueous trichloroacetic acid solution and a solution of 2% [w/v] p-dimethylbenzaldehyde in acetic acid at 2:5 [v/v]) was added at 200 μL/well and reacted for 5 minutes, followed by the measurement of absorbance at 460 nm again. The rate of kynurenine production was calculated according to the following expression. Rate of kynurenine production (%) for each compound in the case of using A431 cells={(Absorbance at 460 nm in the tryptophan-containing culture medium comprising the A431 cells and the solution of the compound of the present invention−Absorbance of the background)/(Absorbance at 460 nm in the tryptophan-containing culture medium without the addition of the compound solution−Absorbance of the background)}×100 TDO Cell-Based Assay Protocol

Another experiment concerns the target T2, TDO in A172 cells (Homo sapiens, UniProt P48775).
T2 construct: endogenous in cells; host or cells: A172 cells
Briefly: TDO cell-based assay, kynurenine production in A172 cells. The conditions noted are these: A 172; final concentration of the compound 10 μM; rate relative to culture without compound. On the procedure: A172 cells (3.0×10^5 cells/mL) suspended in a culture medium for assay (PRMI-1640; Wako 186-02155, 5% FBS, 50 units/mL penicillin, and 50 μg/mL streptomycin) were inoculated at 100 μL/well to a transparent 96-well flat-bottomed plate and cultured at 37° C. for 24 hours in 5% CO2. The culture medium was removed from the cells thus cultured. A culture medium for assay was added at 80 μL/well, and further, a compound solution was added at 10 μL/well. The cells were preincubated for 1 hour. Then, the whole amount was brought to 100 μL/well by the addition of 10 μL/well of a 5 mM aqueous tryptophan solution (final concentration of L-tryptophan: 524 μM), and the cells were cultured for 24 hours. After the culture, absorbance was measured at 460 nm using SpectraMax MSSK (Molecular Devices, LLC) (background measurement). After the measurement, a kynurenine quantification reagent (prepared with 7% [v/v] aqueous trichloroacetic acid solution and a solution of 2% [w/v] p-dimethylbenzaldehyde in acetic acid at 2:5 [v/v]) was added at 200 μL/well and reacted for 5 minutes, followed by the measurement of absorbance at 460 nm again. The rate of kynurenine production was calculated according to the following expression. Rate of kynurenine production (%) for each compound in the case of using A172 cells={(Absorbance at 460 nm in the tryptophan-containing culture medium comprising the A172 cells and the solution of the compound of the present invention−Absorbance of the background)/(Absorbance at 460 nm in the tryptophan-containing culture medium without the addition of the compound solution−Absorbance of the background)}×100

Chain of rhIDO (recombinant human IDO) (P14902 whole entry): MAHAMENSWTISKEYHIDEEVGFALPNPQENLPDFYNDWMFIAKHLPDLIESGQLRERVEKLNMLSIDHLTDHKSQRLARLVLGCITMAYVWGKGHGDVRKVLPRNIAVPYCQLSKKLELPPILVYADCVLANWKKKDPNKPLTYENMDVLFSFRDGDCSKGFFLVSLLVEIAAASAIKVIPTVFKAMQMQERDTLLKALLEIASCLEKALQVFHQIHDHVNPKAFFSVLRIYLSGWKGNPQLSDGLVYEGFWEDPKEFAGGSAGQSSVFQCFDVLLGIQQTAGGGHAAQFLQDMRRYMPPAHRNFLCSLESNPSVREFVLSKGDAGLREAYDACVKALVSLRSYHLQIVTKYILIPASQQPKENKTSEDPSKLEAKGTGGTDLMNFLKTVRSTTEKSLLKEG
T1 sequence (P14902 whole entry): as above
Chain of rhTDO (recombinant human TDO) (P48775 whole entry): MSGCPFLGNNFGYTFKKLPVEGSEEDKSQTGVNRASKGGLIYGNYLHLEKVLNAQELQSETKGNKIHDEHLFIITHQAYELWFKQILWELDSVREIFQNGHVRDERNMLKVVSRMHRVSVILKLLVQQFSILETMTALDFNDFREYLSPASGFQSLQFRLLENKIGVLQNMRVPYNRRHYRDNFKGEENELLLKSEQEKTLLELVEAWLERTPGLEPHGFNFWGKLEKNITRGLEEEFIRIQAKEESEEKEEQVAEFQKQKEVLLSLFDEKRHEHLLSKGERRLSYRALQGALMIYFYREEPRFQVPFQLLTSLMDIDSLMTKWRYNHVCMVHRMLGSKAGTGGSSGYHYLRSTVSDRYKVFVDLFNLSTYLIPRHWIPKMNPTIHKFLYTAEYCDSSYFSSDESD
T2 sequence (P48775 whole entry): as above

In the case of `CNC(=N)SCc1ccccc1CSC(=N)NC` [Compound 11, 1,2-phenylenebis(methylene) bis(methylcarbamimidothioate) dihydrochloride], the remaining activity at 10 µM in experiment [1] was 51%; in experiment [2], 58%; at IDO in A431 cells, 6%; at TDO in A172 cells, 19%.
On to `COc1ccc(CCN2CN=C(SCc3ccc(Br)cc3CSC3=NCN(CCc4ccc(OC)cc4)CN3)NC2)cc1` [Compound 148, 6,6′-(((4-Bromo-1,2-phenylene)bis(methylene))bis(sulfanediyl))bis(3-(4-methoxyphenethyl)-1,2,3,4-tetrahydro-1,3,5-triazine)], for which the remaining activity at 10 µM in experiment [1] came out at 13%; in experiment [2], 8%; at IDO in A431 cells, 7%; at TDO in A172 cells it was 18%.
Turning to `N=C(N)SCc1cc(Cl)c(Cl)cc1CSC(=N)N` [Compound 36, (4,5-dichloro-1,2-phenylene)bis(methylene) dicarbamimidothioate dihydrobromide], the remaining activity at 10 µM in experiment [1] is below 1%; in experiment [2] it was below 3%; at IDO in A431 cells it was 1%; on TDO in A172 cells, -15%.
Turning to `N#Cc1ccc(CNC(=O)c2ccc(Br)cc2CS/C(N)=N/c2ccc(Br)cc2)cc1` [Compound 87, 5-Bromo-2-((4-cyanobenzyl)carbamoyl)benzyl (E)-N′-(4-bromophenyl)carbamimidothioate hydrobromide], the remaining activity at 10 µM in experiment [1] was 75%; in experiment [2] it was 51%; at IDO in A431 cells, 67%; at TDO in A172 cells, 13%.
The corresponding values for `COc1ccc(CN2CN=C(SCc3ccccc3CSC3=NCN(Cc4ccc(OC)cc4)CN3)NC2)cc1` [Compound 26, 1,2-bis(((5-(4-methoxybenzyl)-1,4,5,6-tetrahydro-1,3,5-triazin-2-yl)thio)methyl)benzene] are 36%, 44%, 5% and -5%.
Regarding `N/C(=N\c1ccc(F)cc1)SCc1cc(Cl)c(Cl)cc1CS/C(N)=N/c1ccc(F)cc1` [Compound 137, (4,5-Dichloro-1,2-phenylene)bis(methylene) (E,E)-bis(N′-(4-fluorophenyl)carbamimidothioate) dihydrobromide], the remaining activity at 10 µM was -3% in experiment [1], 9% in experiment [2], 8% at IDO in A431 cells and 2% at TDO in A172 cells.
For the compound `N=C(N)SCc1cc(Br)ccc1C(=O)NCc1ccc(Cl)cc1` [Compound 82, 5-Bromo-2-((4-chlorobenzyl)carbamoyl)benzyl carbamimidothioate hydrobromide], the remaining activity at 10 µM in experiment [1] was 89%; in experiment [2] it was 27%; at IDO in A431 cells, 99%; at TDO in A172 cells, 37%.
With `N=C(N)SCc1nc2ccccc2nc1CSC(=N)N` [Compound 5, quinoxaline-2,3-dilylbis(methylene) dicarbamimidothioate dihydrobromide], the remaining activity at 10 µM was 69% in experiment [1], 84% in experiment [2], 85% on IDO in A431 cells and 113% at TDO in A172 cells.
On to `C/N=C(\NC)SCc1ccccc1CS/C(=N/C)NC` [Compound 8, 1,2-phenylenebis(methylene) (E,E)-bis(N,N′-dimethylcarbamimidothioate) dihydrodhloride], for which the remaining activity at 10 µM worked out at 77% in experiment [1], 52% in experiment [2], 10% at IDO in A431 cells and 20% at TDO in A172 cells.
The matching figures for `N=C(N)SCc1cccc(F)c1CSC(=N)N` [Compound 13, (3-fluoro-1,2-phenylene)bis(methylene) dicarbamimidothioate dihydrobromide]: 15%, 9%, 32% and 42%.
For the compound `O=C1CC(=O)NC(SCc2ccccc2CSC2=NC(=O)CC(=O)N2)=N1` [Compound 30, 2,2′-((1,2-phenylenebis(methylene))bis(sulfanediyl))bis(pyrimidine-4,6(1H,5H)-dione)], the remaining activity at 10 µM is 141% in experiment [1], 126% in experiment [2], 82% on IDO in A431 cells and 94% at TDO in A172 cells.
Consider `c1ccc(CN2CN=C(SCc3ccccc3CSC3=NCN(Cc4ccccc4)CN3)NC2)cc1` [Compound 14, 1,2-bis(((5-benzyl-1,4,5,6-tetrahydro-1,3,5-triazin-2-yl)thio)methyl)benzene], for which the remaining activity at 10 µM in experiment [1] stood at 52%; in experiment [2] it was 31%; at IDO in A431 cells, 7%; on TDO in A172 cells it was 4%.
